Patent US20240207263A1, “SELECTIVE MODULATORS OF ATAXIA TELA[…] (ATM) KINASE AND USES THEREOF” (priority 2021, published 2024)
pIC50: −log10 of the molar value.

molecular target: ATM (Homo sapiens (Human), UniProt Q13315); test: biochemical; format: biochemical; details: read-out: ATM IC50
From the text: Assay a): ATM Biochemical Potency
Data was collected by Caliper.

Sequence of ATM (Q13315 whole entry, looked up): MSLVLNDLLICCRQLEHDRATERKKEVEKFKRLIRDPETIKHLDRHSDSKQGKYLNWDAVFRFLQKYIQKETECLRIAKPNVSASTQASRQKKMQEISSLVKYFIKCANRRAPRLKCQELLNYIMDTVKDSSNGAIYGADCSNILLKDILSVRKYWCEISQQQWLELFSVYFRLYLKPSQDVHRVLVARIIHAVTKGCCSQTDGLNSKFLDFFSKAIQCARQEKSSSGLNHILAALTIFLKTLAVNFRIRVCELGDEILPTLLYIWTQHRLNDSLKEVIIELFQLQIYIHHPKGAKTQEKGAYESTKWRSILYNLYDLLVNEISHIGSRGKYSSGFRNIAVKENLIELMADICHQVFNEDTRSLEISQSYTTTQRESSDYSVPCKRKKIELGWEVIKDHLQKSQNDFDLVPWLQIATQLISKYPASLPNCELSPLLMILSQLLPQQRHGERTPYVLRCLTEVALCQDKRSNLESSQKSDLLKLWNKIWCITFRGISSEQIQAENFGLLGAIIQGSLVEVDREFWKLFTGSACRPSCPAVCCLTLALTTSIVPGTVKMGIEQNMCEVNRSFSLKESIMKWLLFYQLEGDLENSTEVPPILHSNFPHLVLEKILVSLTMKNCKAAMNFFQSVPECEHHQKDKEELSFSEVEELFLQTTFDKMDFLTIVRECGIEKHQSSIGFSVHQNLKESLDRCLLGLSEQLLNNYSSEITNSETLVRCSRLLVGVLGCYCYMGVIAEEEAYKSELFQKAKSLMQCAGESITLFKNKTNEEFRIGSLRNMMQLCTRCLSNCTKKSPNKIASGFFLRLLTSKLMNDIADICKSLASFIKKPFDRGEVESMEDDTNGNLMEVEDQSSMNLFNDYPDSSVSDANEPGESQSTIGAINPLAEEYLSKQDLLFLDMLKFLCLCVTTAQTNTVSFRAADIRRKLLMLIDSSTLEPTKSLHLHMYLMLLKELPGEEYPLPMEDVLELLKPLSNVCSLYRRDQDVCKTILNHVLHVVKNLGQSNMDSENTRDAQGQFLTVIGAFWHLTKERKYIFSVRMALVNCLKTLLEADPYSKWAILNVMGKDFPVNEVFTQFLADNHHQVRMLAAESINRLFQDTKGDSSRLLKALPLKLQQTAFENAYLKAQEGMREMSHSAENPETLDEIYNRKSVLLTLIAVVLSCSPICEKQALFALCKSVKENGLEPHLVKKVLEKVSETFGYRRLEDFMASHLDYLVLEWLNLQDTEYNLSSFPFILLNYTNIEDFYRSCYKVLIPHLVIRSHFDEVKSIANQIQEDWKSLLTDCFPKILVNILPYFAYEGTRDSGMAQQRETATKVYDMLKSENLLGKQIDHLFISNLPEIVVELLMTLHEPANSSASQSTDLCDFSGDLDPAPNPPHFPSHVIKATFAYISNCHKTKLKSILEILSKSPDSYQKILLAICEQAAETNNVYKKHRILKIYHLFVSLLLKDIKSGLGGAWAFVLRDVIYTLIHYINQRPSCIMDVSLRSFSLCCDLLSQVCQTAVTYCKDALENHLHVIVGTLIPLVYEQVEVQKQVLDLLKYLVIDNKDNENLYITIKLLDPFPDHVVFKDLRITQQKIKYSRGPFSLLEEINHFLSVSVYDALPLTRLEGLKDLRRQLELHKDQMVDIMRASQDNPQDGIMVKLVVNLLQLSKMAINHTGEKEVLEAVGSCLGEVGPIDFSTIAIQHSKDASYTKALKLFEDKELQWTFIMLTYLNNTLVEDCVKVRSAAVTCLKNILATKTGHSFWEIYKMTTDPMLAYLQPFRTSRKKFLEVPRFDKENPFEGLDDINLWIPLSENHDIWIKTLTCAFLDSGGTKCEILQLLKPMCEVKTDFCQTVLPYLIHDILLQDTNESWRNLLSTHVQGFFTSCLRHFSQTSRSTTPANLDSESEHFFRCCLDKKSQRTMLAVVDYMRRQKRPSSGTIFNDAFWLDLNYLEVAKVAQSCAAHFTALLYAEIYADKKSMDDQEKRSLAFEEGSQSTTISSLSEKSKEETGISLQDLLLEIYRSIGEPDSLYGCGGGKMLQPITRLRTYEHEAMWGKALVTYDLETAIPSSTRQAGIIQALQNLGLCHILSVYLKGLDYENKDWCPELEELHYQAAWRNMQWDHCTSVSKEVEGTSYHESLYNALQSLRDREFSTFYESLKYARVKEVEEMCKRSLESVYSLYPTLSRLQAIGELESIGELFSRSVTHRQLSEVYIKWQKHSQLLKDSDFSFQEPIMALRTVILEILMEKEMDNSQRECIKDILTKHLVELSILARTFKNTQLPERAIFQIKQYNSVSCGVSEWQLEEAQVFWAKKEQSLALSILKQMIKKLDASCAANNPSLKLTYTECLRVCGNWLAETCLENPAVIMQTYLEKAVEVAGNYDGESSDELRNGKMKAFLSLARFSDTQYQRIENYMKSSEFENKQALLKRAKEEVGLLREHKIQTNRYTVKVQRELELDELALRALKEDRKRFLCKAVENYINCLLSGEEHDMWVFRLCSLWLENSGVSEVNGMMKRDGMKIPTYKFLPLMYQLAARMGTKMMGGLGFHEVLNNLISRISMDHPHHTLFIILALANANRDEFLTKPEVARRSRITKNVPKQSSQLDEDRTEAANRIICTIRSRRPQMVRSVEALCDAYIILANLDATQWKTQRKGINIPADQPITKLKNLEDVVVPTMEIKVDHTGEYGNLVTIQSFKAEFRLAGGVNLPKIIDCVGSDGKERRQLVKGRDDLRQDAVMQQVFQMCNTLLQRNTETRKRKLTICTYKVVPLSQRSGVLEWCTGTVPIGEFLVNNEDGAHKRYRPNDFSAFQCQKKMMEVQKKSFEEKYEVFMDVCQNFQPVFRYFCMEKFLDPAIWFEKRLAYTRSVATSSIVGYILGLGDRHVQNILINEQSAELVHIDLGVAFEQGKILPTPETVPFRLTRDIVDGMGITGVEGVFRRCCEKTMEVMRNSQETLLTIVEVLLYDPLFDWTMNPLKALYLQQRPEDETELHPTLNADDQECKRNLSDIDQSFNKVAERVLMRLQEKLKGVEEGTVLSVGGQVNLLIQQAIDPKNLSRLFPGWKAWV

| Structure (SMILES) | pIC50 |
| --- | --- |
| CC(OCCN1CC2C(C1)C2(F)F)c1ccc(-c2ccc3nnc4c(c3c2)n(C(C)C)c(=O)n4C)cn1 (stereo in doubt) [Example 70, 8-(6-((1S)-1-(2-(6,6-difluoro-3-azabicyclo[3.1.0]hexan-3-yl)ethoxy)ethyl)pyridin-3-yl)-1-isopropyl-3-methyl-1H-imidazo[4,5-c]cinnolin-2(3H)-one] | 6.53 |
| CC(OCCN1CC2C(C1)C2(F)F)c1ccc(-c2ccc3nnc4c(c3c2)n(C(C)C)c(=O)n4C)cn1 (stereo in doubt) [Example 71, 8-(6-((1R)-1-(2-(6,6-difluoro-3-azabicyclo[3.1.0]hexan-3-yl)ethoxy)ethyl)pyridin-3-yl)-1-isopropyl-3-methyl-1H-imidazo[4,5-c]cinnolin-2(3H)-one] | 8.03 |
| CC(C)n1c(=O)n(C)c2nnc3ccc(-c4ccc(COCCN(C)C)nc4)cc3c21 [Example 2, 8-(6-((2-(dimethylamino)ethoxy)meth-yl)pyridin-3-yl)-1-isopropyl-3-methyl-1H-imidazo[4,5-c]cinnolin-2(3H)-one] | 7.28 |
| CC(C)n1c(=O)n(C)c2nnc3ccc(-c4ccc(COCCN5CCCCC5)nc4)cc3c21 [Example 3, 1-isopropyl-3-methyl-8-(6-((2-(piperidin-1-yl)ethoxy)methyl)pyridin-3-yl)-1H-imidazo[4,5-c]cinnolin-2(3H)-one] | 7.44 |
| CC(C)n1c(=O)n(C)c2nnc3ccc(-c4ccc(COCCN5CCCC5)nc4)cc3c21 [Example 4, 1-isopropyl-3-methyl-8-(6-((2-(pyrrolidin-1-yl)ethoxy)methyl)pyridin-3-yl)-1H-imidazo[4,5-c]cinnolin-2(3H)-one] | 7.20 |
| COCCOCc1ccc(-c2ccc3nnc4c(c3c2)n(C(C)C)c(=O)n4C)cn1 [Example 6, 1-isopropyl-8-(6-((2-methoxyethoxy)methyl)py-ridin-3-yl)-3-methyl-1H-imidazo[4,5-c]cinnolin-2(3H)-one] | 6.33 |
| CC(C)n1c(=O)n(C)c2nnc3ccc(-c4ccc(COC5CCN(C)CC5)nc4)cc3c21 [Example 7, 1-isopropyl-3-methyl-8-(6-(((1-methylpiperidin-4-yl)oxy)methyl)pyridin-3-yl)-1H-imidazo[4,5-c]cinnolin-2(3H)-one] | 6.64 |
| CC(C)n1c(=O)n(C)c2nnc3ccc(-c4ccc(COCCCN(C)C)nc4)cc3c21 [Example 8, 8-(6-((3-(dimethylamino)propoxy)methyl)pyridin-3-yl)-1-isopropyl-3-methyl-1H-imidazo[4,5-c]cinnolin-2(3H)-one] | 7.01 |
| CC(C)n1c(=O)n(C)c2nnc3ccc(-c4ccc(COCC5CCN(C)CC5)nc4)cc3c21 [Example 9, 1-isopropyl-3-methyl-8-(6-(((1-methylpiperidin-4-yl)methoxy)methyl)pyridin-3-yl)-1H-imidazo[4,5-c]cinnolin-2(3H)-one] | 6.74 |
| CC(C)n1c(=O)n(C)c2nnc3ccc(-c4ccc(COCC5CCCN5C)nc4)cc3c21 (stereo not shown) [Example 10, 1-isopropyl-3-methyl-8-(6-(((1-methylpyrrolidin-2-yl)methoxy)methyl)pyridin-3-yl)-1H-imidazo[4,5-c]cinnolin-2(3H)-one] | 6.98 |
| CC(C)n1c(=O)n(C)c2nnc3ccc(-c4ccc(COC5CCN(C)C5)nc4)cc3c21 (stereo not shown) [Example 11, 1-isopropyl-3-methyl-8-(6-(((1-methylpyrrolidin-3-yl)oxy)methyl)pyridin-3-yl)-1H-imidazo[4,5-c]cinnolin-2(3H)-one] | 6.91 |
| CC(C)n1c(=O)n(C)c2nnc3ccc(-c4ccc(COCCCN5CC6CC6C5)nc4)cc3c21 (stereo not shown) [Example 12, 8-(6-((3-(3-azabicyclo[3.1.0]hexan-3-yl)propoxy)methyl)pyridin-3-yl)-1-isopropyl-3-methyl-1H-imidazo[4,5-c]cinnolin-2(3H)-one] | 7.33 |
| CC(C)n1c(=O)n(C)c2nnc3ccc(-c4ccc(COC5CCCN(C)C5)nc4)cc3c21 (stereo not shown) [Example 13, 1-isopropyl-3-methyl-8-(6-(((1-methylpiperidin-3-yl)oxy)methyl)pyridin-3-yl)-1H-imidazo[4,5-c]cinnolin-2(3H)-one] | 6.84 |
